The values that follow come from patent publication US11345679B2, “Quaternary lactam compound and pharmaceutical use thereof” (SHANGHAI MEIYUE BIOTECH DEVELOPMENT CO., LTD., priority 2018, dated 2022).

The target of assay [1] is human FXIa protein (hFXIa) (Homo sapiens (Human), UniProt P03951). Description: Enzyme activity assay in vitro (FXIa, S-2366 substrate). Format: biochemical. The following applies: absorbance at OD405nm. How it is done:
II. Enzyme Activity Assay In Vitro
Method: the test compound was dissolved in 10 mM mother liquor with DMSO, and stored at −80° C. until use.

In assay [2] the test system is human plasma. Description: Determination of activated partial thromboplastin time (APTT). It counts as biochemical. How it is done: 1. Determination of Activated Partial Thromboplastin Time (APTT)
1. Preparation of human plasma: human venous whole blood was collected and placed in 3.2% sodium citrate anticoagulation tube (human blood: sodium citrate=9:1 (V/V)). The tube was centrifuged at ˜1560 g for 8 min, to obtain human plasma.
2. Preparation of the test sample: the test compound was dissolved in DMSO, and diluted in gradient to obtain 3000, 600, 120, 24, 4.8 μM stock solutions; each stock solution was mixed with the human plasma as prepared under item 1 at a ratio of 1:49 (V/V).
3. Negative control: DMSO solvent without the test compound was diluted in gradient to obtain 3000, 600, 120, 24, 4.8 μM stock solutions; each stock solution was mixed with the human plasma as prepared under item 1 at a ratio of 1:49 (V/V).
4. Test: After mixing the test solution of the above test sample and that of the negative control separately for 3 to 5 minutes, 30 μL of the test solution was added to the machine (MC-2000 coagulometer), and pre-warmed at 37° C. for 2 min; 30 μL of APTT reagent (MDC Hemostasis, Cat: 300025) was added and incubated at 37° C. for 5 min; and then 30 μL CaCl2 was added to initiate the APTT measurement.
According to the measured APTT result, APTT ratio was calculated according to the following formula. APTT ratio=(APTTtest compound/APTTnegative control).
Exponential equation was used to fit the Lg (concentration) to APTT ratio (Origin Pro 8.5.1 SR2), the drug working concentrations at 1.5 times APTT ratio and 2 times APTT ratio were calculated, namely EC150 and EC200.

Where [3] appears, read: drug working concentration at 1.5 times APTT ratio, read-out: EC150.
[4] abbreviates: drug working concentration at 2 times APTT ratio, read-out: EC200.

The term IC50 denotes the concentration that gives 50% inhibition. Lower therefore signals higher potency.

SMILES strings stand for the structures. Like-named read-outs stand apart in the source and are kept apart here.

human FXIa protein (hFXIa), sequence (P03951 388-625): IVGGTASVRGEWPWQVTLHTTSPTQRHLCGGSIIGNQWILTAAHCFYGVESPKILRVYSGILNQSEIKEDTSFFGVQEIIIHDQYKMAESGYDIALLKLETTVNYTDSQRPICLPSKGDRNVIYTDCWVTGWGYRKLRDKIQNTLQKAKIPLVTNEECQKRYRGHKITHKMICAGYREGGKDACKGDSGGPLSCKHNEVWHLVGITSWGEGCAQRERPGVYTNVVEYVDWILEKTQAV
human FXIa protein (hFXIa), sequence (P03951 19-387 partner): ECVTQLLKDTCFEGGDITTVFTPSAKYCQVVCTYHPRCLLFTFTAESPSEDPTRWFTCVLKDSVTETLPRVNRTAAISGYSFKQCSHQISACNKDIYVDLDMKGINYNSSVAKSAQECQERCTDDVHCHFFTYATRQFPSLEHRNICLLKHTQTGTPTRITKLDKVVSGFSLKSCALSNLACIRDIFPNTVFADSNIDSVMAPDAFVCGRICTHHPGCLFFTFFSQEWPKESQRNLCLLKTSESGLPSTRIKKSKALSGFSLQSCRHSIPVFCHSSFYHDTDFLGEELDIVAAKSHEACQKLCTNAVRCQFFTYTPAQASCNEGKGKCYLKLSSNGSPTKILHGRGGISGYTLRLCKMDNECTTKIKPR

Consider `N#Cc1ccc2c(c1)CCN2C(=O)N1C(=O)[C@H](Cc2ccnc(N)c2)[C@H]1C(=O)O` [Example 13], for which the IC50 in assay [1] was determined as 23.2 nM.
In assay [1], `Nc1cc(C[C@H]2C(=O)N(C(=O)N3CCC[C@H](c4ccccc4)C3)[C@@H]2C(=O)O)ccn1` [Example 16] returned a half-inhibitory concentration (IC50) of 1.89 nM. In addition, the concentration giving fixed-fold APTT prolongation amounted to 1.41 µM in assay [2] (setting [3]) and 6.99 µM in assay [2] (setting [4]).
With `CS(=O)(=O)NC(=O)[C@@H]1[C@@H](Cc2ccnc(N)c2)C(=O)N1C(=O)N1CCCCC1c1ccccc1` (stereo partly shown) [Example 18], half-maximal inhibition in assay [1] (IC50) required 10.7 nM.
Regarding `CNC(=O)[C@@H]1[C@@H](Cc2ccnc(N)c2)C(=O)N1C(=O)N1CCCCC1c1ccccc1` (stereo partly shown) [Example 19], in assay [1], the IC50 was determined as 5.99 nM.
For `CN(C)C(=O)[C@@H]1[C@@H](Cc2ccnc(N)c2)C(=O)N1C(=O)N1CCCCC1c1ccccc1` (stereo partly shown) [Example 20], the IC50 in assay [1] turned out to be 10.8 nM.
As to `CNC(=O)[C@@H]1[C@@H](Cc2ccnc(N)c2)C(=O)N1C(=O)N1CCC[C@H](c2ccccc2)C1` [Example 23], the IC50 in assay [1] stood at 1.5 nM. The concentration giving fixed-fold APTT prolongation is 1.48 µM in assay [2] (setting [3]) and 4.4 µM in assay [2] (setting [4]).
The compound `CN(C)C(=O)[C@@H]1[C@@H](Cc2ccnc(N)c2)C(=O)N1C(=O)N1CCC[C@H](c2ccccc2)C1` [Example 24] registered an IC50 in assay [1] of 3.6 nM.
Still for that read-out and setting: for `CS(=O)(=O)NC(=O)[C@@H]1[C@@H](Cc2ccnc(N)c2)C(=O)N1C(=O)N1CCC[C@H](c2ccccc2)C1` [Example 25] the value was 3.2 nM; for `Nc1cc(C[C@H]2C(=O)N(C(=O)N3CCCC(c4ccc5c(c4)OC(F)(F)O5)C3)[C@@H]2C(=O)O)ccn1` (stereo partly shown) [Example 26], 11.1 nM.
In turn, `Cn1cc(C2CCCN(C(=O)N3C(=O)[C@H](Cc4ccnc(N)c4)[C@H]3C(=O)O)C2)cn1` (stereo partly shown) [Example 28] yielded an IC50 in assay [1] of 23.1 nM.
Still for that read-out and setting: with `CNC(=O)[C@@H]1[C@@H](Cc2ccnc(N)c2)C(=O)N1C(=O)N1CCCC(c2ccc(F)cc2)C1` (stereo partly shown) [Example 30] the figure was 2.4 nM.
Still for that read-out and setting: for `NC(=O)[C@@H]1[C@@H](Cc2ccnc(N)c2)C(=O)N1C(=O)N1CCC[C@@H](c2ccccc2)C1` [Example 31] the value was 2.8 nM; for `NC(=O)[C@@H]1[C@@H](Cc2ccnc(N)c2)C(=O)N1C(=O)N1CCCC(c2ccc3c(c2)OC(F)(F)O3)C1` (stereo partly shown) [Example 32], 4.1 nM.
Still for that read-out and setting: with `CNC(=O)[C@@H]1[C@@H](Cc2ccnc(N)c2)C(=O)N1C(=O)N1CCCC(c2ccc3c(c2)OC(F)(F)O3)C1` (stereo partly shown) [Example 33] the figure was 3.5 nM.
Consider `CNC(=O)[C@@H]1[C@@H](Cc2ccnc(N)c2)C(=O)N1C(=O)N1CCC[C@@H](c2ccccc2)C1` [Example 41], for which the IC50 in assay [1] worked out at 4.1 nM. The concentration giving fixed-fold APTT prolongation in assay [2] (setting [3]) amounted to 2.18 µM; in assay [2] (setting [4]) it was 8.22 µM.
For `COC(=O)Nc1cccc(C2CCCN(C(=O)N3C(=O)[C@H](Cc4ccnc(N)c4)[C@H]3C(=O)O)C2)c1` (stereo partly shown) [Example 42], half-maximal inhibition in assay [1] (IC50) required 9.1 nM.
Still for that read-out and setting: with `CNC(=O)[C@@H]1[C@@H](Cc2ccnc(N)c2)C(=O)N1C(=O)N1CCCC(C2CCCCCCC2)C1` (stereo partly shown) [Example 45] the figure was 5.3 nM.
On the same count and under the same terms, for `Nc1cc(C[C@H]2C(=O)N(C(=O)N3CCCC(c4cccc5ccccc45)C3)[C@@H]2C(=O)O)ccn1` (stereo partly shown) [Example 46] the value was 7.7 nM; for `CNC(=O)[C@@H]1[C@@H](Cc2ccnc(N)c2)C(=O)N1C(=O)N1CCCC(c2ccccc2)C1` (stereo partly shown) [Example 51], 3.3 nM.
